Key:
purified p58 = target: T1, purified p58 (Homo sapiens, UniProt P14618); assay: Binding of [125I]T3 and analogs to purified p58; settings: competition with [125I]T3, equilibrium conditions
T1 construct: p 58 was purified from A431 cells; endogenous in cells; host or cells: A431 cells (purified native protein)
Procedure: Binding data were analyzed by least squares analysis as described in Horiuchi et al, supra.

p58 = target: T2, p58 (Homo sapiens, UniProt P14618); assay: T3 binding in subcellular fractions of A431 cells; settings: for Specific [125I]T3 bound: 50 ug protein
T2 construct: endogenous in cells; host or cells: A431 cells
Procedure: Overnight cultures of A431 cells (1×10^7 cells/150 mm dish) were washed with 30 ml of PBS (Ca^++ and Mg^++ free). Cells were harvested with a rubber policeman and pelleted. The cell pellet was resuspended in 2 ml of homogenization buffer (0.25M sucrose, 20 mM Tris, 1.1 mM MgCl2, pH 7.85) and homogenized in a tight dounce homogenizer. After centrifugation at 800 xg for 10 min, the supernatant was further centrifuged at 110,000 xg for 90 min at 4° C. (supernatant A). The pellet was resuspended by pipetting in 1 ml of the homogenizing buffer. The suspension was centrifuged at 110,000 xg for 90 min (supernatant B). The pellet was extracted with 1 ml of 3 mM CHAPS by stirring for 30 min. The suspension was centrifuged at 110,000 xg for 90 min (supernatant C).

T2 sequence (P14618 2-531 limits assumed): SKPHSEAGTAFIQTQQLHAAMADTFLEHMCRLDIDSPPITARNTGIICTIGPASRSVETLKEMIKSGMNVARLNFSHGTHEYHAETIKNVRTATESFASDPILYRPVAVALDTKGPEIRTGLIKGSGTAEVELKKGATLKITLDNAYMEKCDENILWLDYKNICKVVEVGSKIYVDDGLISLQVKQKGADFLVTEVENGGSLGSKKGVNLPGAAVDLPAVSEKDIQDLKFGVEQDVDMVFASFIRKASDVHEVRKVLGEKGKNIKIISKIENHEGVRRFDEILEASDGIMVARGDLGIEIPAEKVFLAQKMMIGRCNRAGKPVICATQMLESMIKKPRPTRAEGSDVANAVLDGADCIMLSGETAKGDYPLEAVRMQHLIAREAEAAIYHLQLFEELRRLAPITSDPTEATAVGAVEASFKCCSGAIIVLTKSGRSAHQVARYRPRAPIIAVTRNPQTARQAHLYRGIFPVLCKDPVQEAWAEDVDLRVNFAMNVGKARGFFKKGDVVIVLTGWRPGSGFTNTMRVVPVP
T1 sequence (P14618 whole entry): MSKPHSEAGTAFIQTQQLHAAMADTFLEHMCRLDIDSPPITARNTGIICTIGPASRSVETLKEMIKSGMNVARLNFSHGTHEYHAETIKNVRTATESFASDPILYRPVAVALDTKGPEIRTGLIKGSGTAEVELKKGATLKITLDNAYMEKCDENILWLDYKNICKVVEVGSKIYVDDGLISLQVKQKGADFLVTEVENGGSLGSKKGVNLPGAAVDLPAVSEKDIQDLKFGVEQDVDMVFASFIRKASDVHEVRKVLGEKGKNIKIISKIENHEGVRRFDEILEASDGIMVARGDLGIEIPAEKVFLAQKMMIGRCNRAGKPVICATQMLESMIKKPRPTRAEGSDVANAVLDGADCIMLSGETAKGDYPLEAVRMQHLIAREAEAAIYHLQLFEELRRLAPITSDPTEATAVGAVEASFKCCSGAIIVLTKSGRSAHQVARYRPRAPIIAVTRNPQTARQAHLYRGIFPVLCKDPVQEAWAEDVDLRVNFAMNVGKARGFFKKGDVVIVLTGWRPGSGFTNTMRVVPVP

With `N[C@@H](Cc1cc(I)c(Oc2cc(I)c(O)c(I)c2)c(I)c1)C(=O)O` [T4] the “affinity for p58 compared with T3” value (purified p58) was “affinity similar to that of T3”.

For `N[C@@H](Cc1cc(I)c(Oc2ccc(O)c(I)c2)c(I)c1)C(=O)O` [[^125 I]T3], the “Specific [125I]T3 bound, % of total” value (p58; 110,000 xg Pellet) was 6 % of total, the “Specific [125I]T3 bound” value (p58; 110,000 xg Pellet) was 0.17 dpm(× 10^-4) and the “Specific [125I]T3 bound, % of total” value (p58; 110,000 xg Supernatant) was 94 % of total. For the same molecule, the “Specific [125I]T3 bound” value (p58; 110,000 xg Supernatant) was 2.5 dpm(× 10^-4).

In the case of `N[C@@H](Cc1ccc(Oc2cc(I)c(O)c(I)c2)c(I)c1)C(=O)O` [reverse-T3], the “affinity for p58, fold less than that of T3” value (purified p58) is reported as 10 fold.

Source: patent publication US5234815A, “Monoclonal antibodies against cytosolic thyroid hormone binding protein” (The United States of America as represented by the …, priority 1991, dated 1993)
